In one experiment the test system is Caki-1 renal carcinoma. The experiment in a line: Caki-1 renal carcinoma xenograft tumor growth in nude mice. Conditions: YC-1 30 μg/g daily i.p. 2 weeks, P<0.01. Type of experiment: in vivo. The procedure: Male nude mice were injected subcutaneously in the flank with 5×10^6 viable Hep3B hepatoma (A), NCI-H87 gastric carcinoma (B), SiHa cervical carcinoma (C), SK-N-MC neuroblastoma (E), or Caki-I renal carcinoma (F) cells. […] Tumor size was measured over time. […] Differences between tumor sizes in the vehicle- and YC-1-treated groups for mice with Hep3B tumors were compared using ANOVA and Duncan's multiple range tests. * denotes P<0.001 relative to the control. Differences between tumor sizes in the vehicle and YC-1-treated groups for mice with other tumors (B-E) were compared using a Mann-Whitney U test. Each number beneath the error bar represents the P value of the difference relative to the control.
Male nude (BALB/cAnNC˜-nu/nu) mice were purchased from Charles River Japan Inc. (Shin-Yokohama, JAPAN). The animals were housed in a specific pathogen-free room under controlled temperature and humidity. All animal procedures were performed according to the established procedures of the Seoul National University Laboratory Animal Maintenance Manual. Eighty mice aged 7-8 weeks were injected with tumor cells for the xenograft experiments. […]
Tumors were measured every 2 or 3 days with calipers in two dimensions and the tumor volumes were calculated using the formula: Volume=axb2/2, where a is the width at the widest point of the tumor and h is the width perpendicular to a. […]

Another experiment concerns HIF-1α and VEGF. The experiment in a line: HIF-1α and VEGF protein immunoblot of Hep3B xenograft tumor lysates. Type of experiment: in vivo, nude mice. As to conditions: Hep3B xenografts, 30 μg/g daily i.p. 2 weeks. On the procedure:
Male nude mice were injected subcutaneously in the flank with 5×10^6 viable Hep3B cells. […] After the last treatment, the mice were euthanized, the tumors removed and lysates prepared for immunoblotting.
Male nude mice were injected subcutaneously in the flank with 5×10^6 viable Hep3B cells. […] After the last treatment, the mice were euthanized, the tumors removed and lysates prepared for immunoblotting. Tumor lysates from vehicle-treated mice (C) and from. […] The antigen-antibody-protein A complexes were washed extensively with the lysis buffer, the immunocomplexes were eluted by boiling for 3 minutes in a sample buffer containing 2% SDS and 10 mM dithiothreitol and subjected to SDS-PAGE, and then immunoblotted using a rat anti HIF-1α antibody developed previously (Chun et al., Biochem J 2002 362:71-79). β-actin protein was measured as an internal standard. VEGF in tumor tissue was detected using a mouse monoclonal anti-VEGF (SantaCruz Biotechnology Inc., Santa Cruz, Calif.) at a dilution of 1:1000, followed by incubation with a horseradish peroxidase-conjugated anti-mouse antiseruni (Zymed Laboratories Inc.).

In experiment [1] the test system is HIF-1-regulated genes (VEGF, aldolase A, enolase 1). Kind of experiment: RT-PCR of HIF-1-regulated gene mRNA in Hep3B xenografts. The format is in vivo, nude mice. Conditions: 30 μg/g daily i.p. 2 weeks. The procedure: Male nude mice were injected subcutaneously in the flank with 5×10^6 viable Hep3B cells. […] After the last treatment, the mice were euthanized, the tumors removed and lysates prepared for mRNA analysis. The mRNA levels of VEGF, aldolase A, enolase 1, and β-actin were measured by semi-quantitative RT-PCR. The quality of the extracted RNAs was verified by identifying the 18S ribosomal RNA (rRNA) on a 1% denaturing agarose gel.
The quality of the extracted RNAs was verified by identifying the 18S ribosomal RNA (rRNA) on a 1% denaturing agarose gel. VEGF, aldolase A and enolase 1 mRNA levels were also lower in YC-1-treated tumors than in vehicle-treated tumors one experiment. Results are expressed as the mean and 95% confidence intervals of 4 separate experiments.

The subject of experiment [2] is natural killer (NK) cell activity. Kind of experiment: NK cell activity of splenic lymphocytes from treated mice (51Cr release from YAC-1 cells). The format is in vivo, nude mice. Conditions: 30 μg/g daily i.p. for 2 weeks. The procedure: The lymphocytes were then incubated at the indicated effectontarget cell (E:T) ratios with ^51Cr-labeled YAC-1 cells (1×10^4). After 4 hours, the amount of radioactivity in the culture supernatants was measured with a gamma counter. […] Splenic lymphocytes were then isolated and tested for NK cell activity. The result is expressed as the mean of four separate experiments with 95% confidence intervals.
Splenic lymphocytes were isolated from each mouse and tested immediately for NK cell activity. The spontaneous release of ^51Cr from YAC-1 cells was usually lower than 10% of the total ^51Cr loaded. NK cell activity was calculated as follows: {(experimental release−spontaneous release)/(total release−spontaneous release)}×100. Each assay was repeated three times and the average value is the result from one experiment. Results are expressed as the mean and 95% confidence intervals of 4 separate experiments.

For `OCc1ccc(-c2nn(Cc3ccccc3)c3ccccc23)o1` [YC-1, 3-(5′-hydroxymethyl-2′-furyl)-1-benzylindazole], the “tumor size versus vehicle” value in the experiment on Caki-1 renal carcinoma is reported as “statistically significantly smaller”. For the same molecule, in the experiment with HIF-1α and VEGF, the “level of HIF-1α protein expression in tumors versus vehicle” value is “markedly lower” and the “level of VEGF protein expression in tumors versus vehicle” value is on record as “markedly lower”. Further, the “VEGF, aldolase A and enolase 1 mRNA levels in tumors versus vehicle” value in experiment [1] is recorded as “lower”. In addition, the “cytolytic activity versus vehicle-treated mice” value in experiment [2] is given as “comparable”.

The record behind these values is patent US20050096370A1, “Method for inhibiting tumor angiogenesis and tumor growth” (Bizbiotech Co., Ltd., priority 2003, published 2005).
